Data taken from US10450318B2, “CXCR4 receptor antagonists” (BRISTOL-MYERS SQUIBB COMPANY, priority 2015, dated 2019).

biological target: T1, CXCR4 receptors (Homo sapiens, UniProt P61073); test: CXCR4-CEM calcium flux assay, antagonist mode (inhibition of SDF-1α-induced calcium flux); assay type: cell-based; details: inhibition of calcium flux induced by 4 nM SDF-1α in CCRF-CEM cells
T1 construct: expressing endogenous CXCR4 receptors; endogenous in cells; host or cells: CCRF-CEM (human T lymphoblast cells)
Protocol: Exemplary compounds of the invention were tested for their ability to induce or inhibit calcium flux in CCRF-CEM cells. […] CXCR4-CEM Calcium Flux Assays. […] The cells were then equilibrated to room temperature for 30 minutes before assay. […] The serially diluted compounds were diluted to working concentrations with the same assay buffer to 0.5% DMSO. […] Activity of the compounds to induce calcium flux was monitored by FDSS in the “agonist mode” for 90 sec. For “antagonist mode” assessment, the cells are subsequently incubated for 25 min at room temperature. SDF-1α (R&D System Cat#350-NS/CF) was then added at a final concentration of 4 nM to stimulate the cells. Inhibition of SDF-1α-induced calcium flux was monitored by FDSS6000 for 90 sec. […] After correcting for background, EC50 values were determined. […] Inhibition data for the test compound over a range of concentrations was plotted as percentage inhibition of the test compound as compared to an internal control compound.

T1 sequence (P61073 whole entry): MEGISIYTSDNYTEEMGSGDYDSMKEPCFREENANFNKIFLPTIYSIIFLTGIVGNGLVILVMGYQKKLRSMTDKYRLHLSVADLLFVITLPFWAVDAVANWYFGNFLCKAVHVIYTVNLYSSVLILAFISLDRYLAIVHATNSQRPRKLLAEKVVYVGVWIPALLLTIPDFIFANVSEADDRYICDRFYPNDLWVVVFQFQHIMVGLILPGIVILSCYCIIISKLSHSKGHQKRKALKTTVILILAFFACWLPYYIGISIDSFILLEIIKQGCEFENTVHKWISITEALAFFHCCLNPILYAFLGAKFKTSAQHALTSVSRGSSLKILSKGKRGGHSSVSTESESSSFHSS

| IC50 [nM] | SMILES |
| --- | --- |
| 170 | CN(Cc1cn2c(N3CCN(CC4CCCC4)CC3)nccc2n1)[C@H]1CCCc2cccnc21 [Example 31, (S)-N-({5-[4-(cyclopentylmethyl)piperazin-1-yl]imidazo[1,2-c]pyrimidin-2-yl}methyl)-N-methyl-5,6,7,8-tetrahydroquinolin-8-amine] |
| 310 | CN(Cc1cn2c(N3CCN(CC4CCOC4)CC3)nccc2n1)[C@H]1CCCc2cccnc21 (stereo partly drawn) [Example 32, (S)-N-methyl-N-({5-[4-(oxolan-3-ylmethyl)piperazin-1-yl]imidazo[1,2-c]pyrimidin-2-yl}methyl)-5,6,7,8-tetrahydroquinolin-8-amine] |
| 1000 | CN(Cc1cn2c(N3CCN(CC(C)(C)C)CC3)nccc2n1)[C@H]1CCCc2cccnc21 [Example 33, (S)-N-({5-[4-(2,2-dimethylpropyl)piperazin-1-yl]imidazo[1,2-c]pyrimidin-2-yl}methyl)-N-methyl-5,6,7,8-tetrahydroquinolin-8-amine] |
| 120 | CN(Cc1cn2c(N3CCN(CCCc4ccccc4)CC3)nccc2n1)[C@H]1CCCc2cccnc21 [Example 34, (S)-N-methyl-N-({5-[4-(3-phenylpropyl)piperazin-1-yl]imidazo[1,2-c]pyrimidin-2-yl}methyl)-5,6,7,8-tetrahydroquinolin-8-amine] |
| 510 | CCN1CCN(c2nccc3nc(CN(C)[C@H]4CCCc5cccnc54)cn23)CC1 [Example 35, (S)-N-{[5-(4-ethylpiperazin-1-yl)imidazo[1,2-c]pyrimidin-2-yl]methyl}-N-methyl-5,6,7,8-tetrahydroquinolin-8-amine] |
| 30700 | CN(Cc1cn2c(N3CCN(CCC(F)(F)F)CC3)nccc2n1)[C@H]1CCCc2cccnc21 [Example 36, (S)-N-methyl-N-({5-[4-(3,3,3-trifluoropropyl)piperazin-1-yl]imidazo[1,2-c]pyrimidin-2-yl}methyl)-5,6,7,8-tetrahydroquinolin-8-amine] |
| 23 | CN(Cc1cn2c(N3CCN(Cc4ccccc4)CC3)nccc2n1)[C@H]1CCCc2cccnc21 [Example 37, (S)-N-{[5-(4-benzylpiperazin-1-yl)imidazo[1,2-c]pyrimidin-2-yl]methyl}-N-methyl-5,6,7,8-tetrahydroquinolin-8-amine] |
| 420 | CN1CCC(N2CCN(c3nccc4nc(CN(C)[C@H]5CCCc6cccnc65)cn34)CC2)CC1 [Example 38, (S)-N-methyl-N-({5-[4-(1-methylpiperidin-4-yl)piperazin-1-yl]imidazo[1,2-c]pyrimidin-2-yl}methyl)-5,6,7,8-tetrahydroquinolin-8-amine] |
| 63 | CN(Cc1cn2c(N3CCN(CC(c4ccccc4)c4ccccc4)CC3)nccc2n1)[C@H]1CCCc2cccnc21 [Example 39, (S)-N-({5-[4-(2,2-diphenylethyl)piperazin-1-yl]imidazo[1,2-c]pyrimidin-2-yl}methyl)-N-methyl-5,6,7,8-tetrahydroquinolin-8-amine] |
| 14400 | CC(C)S(=O)(=O)N1CCN(c2nccc3nc(CN(C)[C@H]4CCCc5cccnc54)cn23)CC1 [Example 40, (S)-N-methyl-N-({5-[4-(propane-2-sulfonyl)piperazin-1-yl]imidazo[1,2-c]pyrimidin-2-yl}methyl)-5,6,7,8-tetrahydroquinolin-8-amine] |
| 7500 | CN(Cc1cn2c(N3CCN(S(=O)(=O)c4cccnc4)CC3)nccc2n1)[C@H]1CCCc2cccnc21 [Example 41, (S)-N-methyl-N-({5-[4-(pyridine-3-sulfonyl)piperazin-1-yl]imidazo[1,2-c]pyrimidin-2-yl}methyl)-5,6,7,8-tetrahydroquinolin-8-amine] |
| 22700 | CN(Cc1cn2c(N3CCN(S(=O)(=O)c4cccc(Cl)c4)CC3)nccc2n1)[C@H]1CCCc2cccnc21 [Example 42, (S)-N-({5-[4-(3-chlorobenzenesulfonyl)piperazin-1-yl]imidazo[1,2-c]pyrimidin-2-yl}methyl)-N-methyl-5,6,7,8-tetrahydroquinolin-8-amine] |
| 130 | CN(Cc1cn2c(N3CCN(C(=O)Nc4ccccc4)CC3)nccc2n1)[C@H]1CCCc2cccnc21 [Example 43, 4-[2-({methyl[(S)-5,6,7,8-tetrahydroquinolin-8-yl]amino}methyl)imidazo[1,2-c]pyrimidin-5-yl]-N-phenylpiperazine-1-carboxamide] |
| 9360 | CC(C)NC(=O)N1CCN(c2nccc3nc(CN(C)[C@H]4CCCc5cccnc54)cn23)CC1 [Example 44, 4-[2-({methyl[(S)-5,6,7,8-tetrahydroquinolin-8-yl]amino}methyl)imidazo[1,2-c]pyrimidin-5-yl]-N-(propan-2-yl)piperazine-1-carboxamide] |
| 66 | CN(Cc1cn2c(N3CCN(C(=O)Nc4cccnc4)CC3)nccc2n1)[C@H]1CCCc2cccnc21 [Example 45, 4-[2-({methyl[(S)-5,6,7,8-tetrahydroquinolin-8-yl]amino}methyl)imidazo[1,2-c]pyrimidin-5-yl]-N-(pyridin-3-yl)piperazine-1-carboxamide] |
| 7.3 | CC(CN1CCN(c2nccc3nc(CN(C)[C@H]4CCCc5cccnc54)cn23)CC1)c1ccccc1 (stereo partly drawn) [Example 46, (S)-N-methyl-N-({5-[4-(2-phenylpropyl)piperazin-1-yl]imidazo[1,2-c]pyrimidin-2-yl}methyl)-5,6,7,8-tetrahydroquinolin-8-amine] |
| 9.7 | CN(Cc1cn2c(N3CCN(Cc4ccc(-c5ccccc5)cc4)CC3)nccc2n1)[C@H]1CCCc2cccnc21 [Example 47, (S)-N-methyl-N-[(5-{4-[(4-phenylphenyl)methyl]piperazin-1-yl}imidazo[1,2-c]pyrimidin-2-yl)methyl]-5,6,7,8-tetrahydroquinolin-8-amine] |
| 300 | CCOC(=O)CN1CCN(c2nccc3nc(CN(C)[C@H]4CCCc5cccnc54)cn23)CC1 [Example 48, ethyl 2-{4-[2-({methyl[(S)-5,6,7,8-tetrahydroquinolin-8-yl]amino}methyl)imidazo[1,2-c]pyrimidin-5-yl]piperazin-1-yl}acetate] |
| 2.8 | CN(Cc1cn2c(N3CCN(Cc4ncc[nH]4)CC3)nccc2n1)[C@H]1CCCc2cccnc21 [Example 49, (S)-N-({5-[4-(1H-imidazol-2-ylmethyl)piperazin-1-yl]imidazo[1,2-c]pyrimidin-2-yl}methyl)-N-methyl-5,6,7,8-tetrahydroquinolin-8-amine] |
| 92 | CN(Cc1cn2c(N3CCN(CC(=O)O)CC3)nccc2n1)[C@H]1CCCc2cccnc21 [Example 50, 2-{4-[2-({methyl[(S)-5,6,7,8-tetrahydroquinolin-8-yl]amino}methyl)imidazo[1,2-c]pyrimidin-5-yl]piperazin-1-yl}acetic acid] |
| 6 | CN(Cc1cn2c(N3CCN(Cc4nccn4C)CC3)nccc2n1)[C@H]1CCCc2cccnc21 [Example 51, (S)-N-methyl-N-[(5-{4-[(1-methyl-1H-imidazol-2-yl)methyl]piperazin-1-yl}imidazo[1,2-c]pyrimidin-2-yl)methyl]-5,6,7,8-tetrahydroquinolin-8-amine] |
| 2.9 | Cc1cccc(CN2CCN(c3nccc4nc(CN(C)[C@H]5CCCc6cccnc65)cn34)CC2)c1 [Example 52, (S)-N-methyl-N-[(5-{4-[(3-methylphenyl)methyl]piperazin-1-yl}imidazo[1,2-c]pyrimidin-2-yl)methyl]-5,6,7,8-tetrahydroquinolin-8-amine] |
| 17 | Cc1ccc(CN2CCN(c3nccc4nc(CN(C)[C@H]5CCCc6cccnc65)cn34)CC2)cc1 [Example 53, (S)-N-methyl-N-[(5-{4-[(4-methylphenyl)methyl]piperazin-1-yl}imidazo[1,2-c]pyrimidin-2-yl)methyl]-5,6,7,8-tetrahydroquinolin-8-amine] |
| 5.6 | CN(Cc1cn2c(N3CCN(Cc4ccco4)CC3)nccc2n1)[C@H]1CCCc2cccnc21 [Example 54, (S)-N-({5-[4-(furan-2-ylmethyl)piperazin-1-yl]imidazo[1,2-c]pyrimidin-2-yl}methyl)-N-methyl-5,6,7,8-tetrahydroquinolin-8-amine] |
| 9 | CN(Cc1cn2c(N3CCN(Cc4ccccn4)CC3)nccc2n1)[C@H]1CCCc2cccnc21 [Example 55, (S)-N-methyl-N-({5-[4-(pyridin-2-ylmethyl)piperazin-1-yl]imidazo[1,2-c]pyrimidin-2-yl}methyl)-5,6,7,8-tetrahydroquinolin-8-amine] |
| 4.6 | CN(Cc1cn2c(N3CCN(Cc4cccn4C)CC3)nccc2n1)[C@H]1CCCc2cccnc21 [Example 56, (S)-N-methyl-N-[(5-{4-[(1-methyl-1H-pyrrol-2-yl)methyl]piperazin-1-yl}imidazo[1,2-c]pyrimidin-2-yl)methyl]-5,6,7,8-tetrahydroquinolin-8-amine] |
| 28 | CN(Cc1cn2c(N3CCN(Cc4cccc(Oc5ccccc5)c4)CC3)nccc2n1)[C@H]1CCCc2cccnc21 [Example 57, (8S)-N-methyl-N-[(5-{4-[(3-phenoxyphenyl)methyl]piperazin-1-yl}imidazo[1,2-c]pyrimidin-2-yl)methyl]-5,6,7,8-tetrahydroquinolin-8-amine] |
| 60 | CN(Cc1cn2c(N3CCN(CC4CCCO4)CC3)nccc2n1)[C@H]1CCCc2cccnc21 (stereo partly drawn) [Example 58, (S)-N-methyl-N-({5-[4-(oxolan-2-ylmethyl)piperazin-1-yl]imidazo[1,2-c]pyrimidin-2-yl}methyl)-5,6,7,8-tetrahydroquinolin-8-amine] |
